Consider two molecules from patent US20010016560A1, “Herbicidal compositions” (priority 1998, published 2001).

The structures appear in SMILES notation.

Data set [1] has as its system SACOF RB72 454. The experiment in a line: Field test Brazil, crop effect, heavy clay soil (Example 1). In kind it is in vivo, ratoon sugarcane. How it is done:
(§1) [0042] The following test was conducted in Brazil: Tebuthiuron (used as the commercial formulation “Combine™”, a suspension concentrate containing […] active ingredient) and 5-cyclopropyl-4-(2-methylsulfonyl-4-trifluoromethyl)benzoylisoxazole (isoxaflutole, hereafter referred to as Compound A), which was formulated as wettable granules, were sprayed alone and in tank mix combination (spray rate 300 l/ha) to a plot 5 meters by 3 meters pre-emergence of the weeds and ratoon sugarcane (varieties RB72 454 and […]). The soil was a heavy clay soil containing 1.8% organic matter, […] (pH 5.3) and had been sown on the same day as application with the weed species (the application was made to the ratoon cane about 90 days after cutting and before re-growth). Visual assessment was made 95 days after treatment in comparison with an untreated control plot. Two replicates were performed.

In data set [2] the test system is SACOF RB68 5089. The data set is described as above. In kind it is in vivo, ratoon sugarcane. On the procedure:
as §1

The test system of data set [3] is SACOF RB72 454. The data set is described as follows: Field test Brazil, crop effect, light sandy soil (Example 2). In kind it is in vivo, ratoon sugarcane. How it is done:
as §1
(§2) [0044] The following test was conducted in Brazil following the same procedure as described in Example 1 above but where the soil type was light sandy containing 1.8% organic matter, 82% sand and 13% clay (pH 5.3). Again, two replicates were performed.

Data set [4] has as its system SACOF RB68 5089. The description is as above. In kind it is in vivo, ratoon sugarcane. How it is done:
as §1, §2

The subject of data set [5] is BRAPL. The data set is described as follows: Field test Brazil, pre-emergence, light sandy soil (Example 2). In kind it is in vivo. To be noted: 95 days after treatment vs untreated plot, g/ha: Cpd A 150, Tebuthiuron 500, mix 500+150. On the procedure:
as §1, §2

The next data set concerns SIDRH. The description is as above. In kind it is in vivo. To be noted: 95 days after treatment vs untreated plot, g/ha: Cpd A 150, Tebuthiuron 500, mix 500+150. On the procedure:
as §1, §2

Data set [6] relates to AMASP. The description is as above. In kind it is in vivo. To be noted: 95 days after treatment vs untreated plot, g/ha: Cpd A 150, Tebuthiuron 500, mix 500+150. How it is done:
as §1, §2

For data set [7], the system named is DIGHO. The data set is described as above. In kind it is in vivo. The note with it: 95 days after treatment vs untreated plot, g/ha: Cpd A 150, Tebuthiuron 500, mix 500+150. On the procedure: as §1, §2
Data set [8] has as its system ECHCG. The data set is described as above. In kind it is in vivo. The note with it: 95 days after treatment vs untreated plot, g/ha: Cpd A 150, Tebuthiuron 500, mix 500+150. How it is done:
as §1, §2

For data set [9], the system named is ELEIN. The data set is described as above. To be noted: 95 days after treatment vs untreated plot, g/ha: Cpd A 150, Tebuthiuron 500, mix 500+150. In kind it is in vivo. How it is done: as §1, §2
Data set [10] concerns BRAPL. The data set is described as follows: Field test Brazil, pre-emergence, heavy clay soil (Example 1). To be noted: 95 days after treatment vs untreated plot, g/ha: Cpd A 150, Tebuthiuron 500, mix 500+150. In kind it is in vivo. On the procedure:
as §1

For data set [11], the system named is AMASP. The data set is described as above. In kind it is in vivo. The note with it: 95 days after treatment vs untreated plot, g/ha: Cpd A 150, Tebuthiuron 500, mix 500+150. How it is done:
as §1

The test system of data set [12] is DIGHO. The description is as above. In kind it is in vivo. The note with it: 95 days after treatment vs untreated plot, g/ha: Cpd A 150, Tebuthiuron 500, mix 500+150. On the procedure:
as §1

For data set [13], the system named is ECHCG. Described as above. In kind it is in vivo. To be noted: 95 days after treatment vs untreated plot, g/ha: Cpd A 150, Tebuthiuron 500, mix 500+150. On the procedure:
as §1

Data set [14] relates to ELEIN. The description is as above. In kind it is in vivo. The note with it: 95 days after treatment vs untreated plot, g/ha: Cpd A 150, Tebuthiuron 500, mix 500+150. On the procedure: as §1
Another data set concerns PANMA. Described as above. To be noted: 95 days after treatment vs untreated plot, g/ha: Cpd A 150, Tebuthiuron 500, mix 500+150. In kind it is in vivo. On the procedure:
as §1

[15] abbreviates: pre-emergence, 95 days after treatment vs untreated plot, heavy clay soil, g/ha: Cpd A 150, Tebuthiuron 500, mix 500+150.
The mark [16] stands for this setting: pre-emergence, 95 days after treatment vs untreated plot, light sandy soil, g/ha: Cpd A 150, Tebuthiuron 500, mix 500+150.

Take `CNC(=O)N(C)c1nnc(C(C)(C)C)s1` [Tebuthiuron]: the “Visual assessment SACOF RB72 454 (crop)” value in the data set with SACOF RB72 454 [1] (setting [15]) and in the data set on SACOF RB72 454 [3] (setting [16]) was 0 throughout. Moreover, the “Visual assessment SACOF RB68 5089 (crop)” value in the data set on SACOF RB68 5089 [2] (setting [15]) and in the data set with SACOF RB68 5089 [4] (setting [16]) was 0 throughout. Besides, the “Visual assessment BRAPL” value with BRAPL [5] worked out at 20; with BRAPL [10], 10. In addition, in the data set with SIDRH, the “Visual assessment SIDRH” value is 60. In addition, the “Visual assessment AMASP” value with AMASP [6] is given as 70; in the data set on AMASP [11], 75. Besides, the “Visual assessment DIGHO” value turned out to be 20 in the data set on DIGHO [7] and 10 in the data set on DIGHO [12]. Besides, the results for the “Visual assessment ECHCG” value with ECHCG [8] and with ECHCG [13] were 15 and 10, respectively. Moreover, the “Visual assessment ELEIN” value in the data set on ELEIN [9] and in the data set on ELEIN [14] was 20 each time. The “Visual assessment PANMA” value in the data set on PANMA came to 5.
Regarding `CS(=O)(=O)c1cc(C(F)(F)F)ccc1C(=O)c1cnoc1C1CC1` [Cpd A, 5-cyclopropyl-4-(2-methylsulfonyl-4-trifluoromethyl)benzoylisoxazole], the “Visual assessment SACOF RB72 454 (crop)” value with SACOF RB72 454 [1] (in vivo) and in the data set on SACOF RB72 454 [3] (in vivo) was 0 each time. The “Visual assessment SACOF RB68 5089 (crop)” value in the data set on SACOF RB68 5089 [2] (in vivo) and in the data set with SACOF RB68 5089 [4] (in vivo) was 0 throughout. The “Visual assessment BRAPL” value in the data set on BRAPL [5] was 15; in the data set with BRAPL [10] it was 70. Further, the “Visual assessment SIDRH” value with SIDRH was found to be 10. The “Visual assessment AMASP” value in the data set on AMASP [6] came to 27.5; in the data set with AMASP [11], 80. Moreover, the “Visual assessment DIGHO” value is recorded as 20 with DIGHO [7] and 75 with DIGHO [12]. Besides, the figures for the “Visual assessment ECHCG” value in the data set with ECHCG [8] and in the data set on ECHCG [13] were 20 and 50, respectively. Besides, the entries for the “Visual assessment ELEIN” value with ELEIN [9] and with ELEIN [14] were 30 and 85, respectively. In addition, in the data set on PANMA, the “Visual assessment PANMA” value stood at 85.
